Starred links: 1 amine or outer side, 2 acyl side, 3 side chain; linkers in the order of their positions; H or OH if unused. Positions of bridges follow the written chain, without caps; N, C: chain ends. Non-standard residues stand in square brackets, D forms with d. Residues, ends and D or L forms follow the SMILES beside them. Bip(4'-NHCO-C6H4-4-CH2COOH) = N[C@@H](Cc1ccc(-c2ccc(NC(=O)c3ccc(CC(=O)O)cc3)cc2)cc1)C(=O)O; X74 = Cn1nc(C(=O)Nc2ccc(-c3ccc(C[C@H](N[*:1])C(=O)[*:2])cc3)cc2)c2cccnc21; X5 = Cn1nc(C(=O)Nc2ccc(-c3ccc(C[C@H](N[*:1])C(=O)[*:2])cc3)cc2)c2ccccc21; Bip(4'-NHBz) = N[C@@H](Cc1ccc(-c2ccc(NC(=O)c3ccccc3)cc2)cc1)C(=O)O; Bip(4'-COOH) = N[C@@H](Cc1ccc(-c2ccc(C(=O)O)cc2)cc1)C(=O)O; Bip(4'-NHAc) = CC(=O)Nc1ccc(-c2ccc(C[C@H](N)C(=O)O)cc2)cc1; X25 = N=C(N)Nc1cccc(CNC(=N)NCCC[C@@H](N[*:1])C(=O)[*:2])c1; X6 = N=C(NCCCCC(N)=O)NCCC[C@@H](N[*:1])C(=O)[*:2]; Ala(morpholin-4-yl) = N[C@@H](CN1CCOCC1)C(=O)O; Bip = N[C@@H](Cc1ccc(-c2ccccc2)cc1)C(=O)O; Chg = N[C@H](C(=O)O)C1CCCCC1; Sar = CNCC(=O)O

For the first experiment, the target named is TNFα (Homo sapiens, UniProt P01375). Kind of experiment: TNF-Induced HEK-Blue Assay. In kind it is cell-based.
Sequence of TNFα (P01375 77-233 limits assumed): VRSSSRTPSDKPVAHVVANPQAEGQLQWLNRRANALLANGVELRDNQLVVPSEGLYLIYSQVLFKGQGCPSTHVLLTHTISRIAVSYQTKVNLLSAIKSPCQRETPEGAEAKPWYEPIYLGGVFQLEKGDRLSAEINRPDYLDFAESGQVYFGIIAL
Details: not given
As usually defined, the IC50 is the midpoint of a concentration-inhibition curve. For the molecule `CC(C)C[C@@H]1NC(=O)[C@H](Cc2cnc[nH]2)NC(=O)[C@H](C(C)C)NC(=O)[C@@H]2CCCN2C(=O)[C@H](C(C)C)NC(=O)[C@@H](CCCNC(=N)N)NC(=O)[C@H](CC(=O)O)NC(=O)[C@H](Cc2ccccc2)NC(=O)CN(C)C(=O)[C@H](Cc2ccc(-c3ccc(NC(=O)c4ccccc4)cc3)cc2)NC(=O)[C@H](Cc2ccc(-c3ccccc3)cc2)NC(=O)[C@H](CN2CCOCC2)NC(=O)CSC[C@@H](C(=O)NCC(N)=O)NC1=O` [Example 491] ({CH2CO}-[Ala(morpholin-4-yl)][Bip][Bip(4'-NHBz)][Sar]FD[dR]VPVHLCG-NH2; thioether N-13), the IC50 is 50 to 200 nM.

Staying with this experiment, now noted: HEK-Blue-CD40L cells, NF-kB-driven secreted alkaline phosphatase reporter; TNFα 0.5 ng/ml; 18 h; read-out: TNF induced HEK-Blue assay IC50 value.
In the case of `CC(=O)Nc1ccc(-c2ccc(C[C@@H]3NC(=O)[C@H](Cc4ccc(-c5ccccc5)cc4)NC(=O)[C@H](CN4CCOCC4)NC(=O)CSC[C@@H](C(=O)NCC(N)=O)NC(=O)[C@H](CC(C)C)NC(=O)[C@H](Cc4cnc[nH]4)NC(=O)[C@H](C(C)C)NC(=O)[C@@H]4CCCN4C(=O)[C@H](C(C)C)NC(=O)[C@@H](CCCNC(=N)N)NC(=O)[C@H](CC(=O)O)NC(=O)[C@H](Cc4cnc[nH]4)NC(=O)CN(C)C3=O)cc2)cc1` [Example 211] ({CH2CO}-[Ala(morpholin-4-yl)][Bip][Bip(4'-NHAc)][Sar]HD[dR]VPVHLCG-NH2; thioether N-13), the concentration for half-maximal inhibition (IC50) is 200 to 2000 nM.

`CC(C)C[C@@H]1NC(=O)[C@H](CCCNC(=N)N)NC(=O)[C@H](C(C)C)NC(=O)[C@@H]2CCCN2C(=O)[C@H](C(C)C)NC(=O)[C@@H](CCCNC(=N)N)NC(=O)[C@H](CC(=O)O)NC(=O)[C@@H]2CCCN2C(=O)CN(C)C(=O)[C@H](Cc2ccc(-c3ccc(NC(=O)c4nn(C)c5ncccc45)cc3)cc2)NC(=O)[C@H](Cc2ccc(-c3ccccc3)cc2)NC(=O)[C@H](CN2CCOCC2)NC(=O)CSC[C@@H](C(=O)NCC(N)=O)NC1=O` [Example 347] ({CH2CO}-[Ala(morpholin-4-yl)][Bip][X74][Sar]PD[dR]VPVRLCG-NH2; thioether N-13): the IC50 was < 50 nM.

For the molecule `CC(C)C[C@@H]1NC(=O)[C@H](CCCNC(=N)N)NC(=O)[C@H](C(C)C)NC(=O)[C@@H]2CCCN2C(=O)[C@H](C(C)C)NC(=O)[C@@H](CCCNC(=N)NCc2cccc(NC(=N)N)c2)NC(=O)[C@H](CC(=O)O)NC(=O)[C@@H]2CCCN2C(=O)CN(C)C(=O)[C@H](Cc2ccc(-c3ccc(NC(=O)c4nn(C)c5ccccc45)cc3)cc2)NC(=O)[C@H](Cc2ccc(-c3ccccc3)cc2)NC(=O)[C@H](CN2CCOCC2)NC(=O)CSC[C@@H](C(=O)NCC(N)=O)NC1=O` [Example 438] ({CH2CO}-[Ala(morpholin-4-yl)][Bip][X5][Sar]PD[X25]VPVRLCG-NH2; thioether N-13), the 50% inhibitory concentration (IC50) lay within 50 to 200 nM.

`CC(C)C[C@@H]1NC(=O)[C@H](CCCNC(=N)N)NC(=O)[C@H](C(C)C)NC(=O)[C@@H]2CCCN2C(=O)[C@H](C(C)C)NC(=O)[C@@H](CCCNC(=N)NCCCCC(N)=O)NC(=O)[C@H](CC(=O)O)NC(=O)[C@@H]2CCCN2C(=O)CN(C)C(=O)[C@H](Cc2ccc(-c3ccc(NC(=O)c4nn(C)c5ccccc45)cc3)cc2)NC(=O)[C@H](Cc2ccc(-c3ccccc3)cc2)NC(=O)[C@H](CN2CCOCC2)NC(=O)CSC[C@@H](C(=O)NCC(N)=O)NC1=O` [Example 392] ({CH2CO}-[Ala(morpholin-4-yl)][Bip][X5][Sar]PD[X6]VPVRLCG-NH2; thioether N-13): the IC50 lay within 50 to 200 nM.

For the molecule `CC(C)C[C@@H]1NC(=O)[C@H](CCCNC(=N)N)NC(=O)[C@H](C2CCCCC2)NC(=O)[C@@H]2CCCN2C(=O)[C@H](C(C)C)NC(=O)[C@@H](CCCNC(=N)N)NC(=O)[C@H](CC(=O)O)NC(=O)[C@H](Cc2cnc[nH]2)NC(=O)CN(C)C(=O)[C@H](Cc2ccc(-c3ccccc3)cc2)NC(=O)[C@H](Cc2ccc(-c3ccccc3)cc2)NC(=O)[C@H](CN2CCOCC2)NC(=O)CSC[C@@H](C(=O)NCC(N)=O)NC1=O` [Example 230] ({CH2CO}-[Ala(morpholin-4-yl)][Bip][Bip][Sar]HD[dR]VP[Chg]RLCG-NH2; thioether N-13), the IC50 fell in the range of 50 to 200 nM.

Turning to `CC[C@H](C)[C@@H]1NC(=O)[C@@H](CCCNC(=N)N)NC(=O)[C@H](CC(=O)O)NC(=O)[C@H](Cc2cnc[nH]2)NC(=O)CN(C)C(=O)[C@H](Cc2ccc(-c3ccc(NC(=O)c4ccc(CC(=O)O)cc4)cc3)cc2)NC(=O)[C@H](Cc2ccc(-c3ccc(C(=O)O)cc3)cc2)NC(=O)[C@H](CN2CCOCC2)NC(=O)CSC[C@@H](C(=O)NCC(N)=O)NC(=O)[C@H](CC(C)C)NC(=O)[C@H](Cc2cnc[nH]2)NC(=O)[C@H](C(C)C)NC(=O)[C@@H]2CCCN2C1=O` [Example 487] ({CH2CO}-[Ala(morpholin-4-yl)][Bip(4'-COOH)][Bip(4'-NHCO-C6H4-4-CH2COOH)][Sar]HD[dR]IPVHLCG-NH2; thioether N-13), the IC50 is < 50 nM.

For the origin of these results see patent publication US20250145665A1, “MACROCYCLIC PEPTIDES USEFUL AS MODULATORS OF TNF ALPHA” (Bristol-Myers Squibb Company, priority 2023, published 2025).
